Measurements taken from PubChem BioAssay (NCI).
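These data come from cells grown in 96-well plates and exposed to compound for 48 hours at five concentrations. GI50 is the concentration that inhibits growth by half. TGI marks complete inhibition of growth.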

What was measured:
Experiment in all cases: DTP human tumour cell line panel, 48 h
M14 melanoma = tested on: M14 melanoma
U251 CNS = tested on: U251 CNS
SF-295 CNS = tested on: SF-295 CNS
SW-620 colon = tested on: SW-620 colon
LOX IMVI melanoma = tested on: LOX IMVI melanoma
MOLT-4 leukemia = tested on: MOLT-4 leukemia
HCT-15 colon = tested on: HCT-15 colon
HL-60(TB) leukemia = tested on: HL-60(TB) leukemia
MCF7 breast = tested on: MCF7 breast
DU-145 prostate = tested on: DU-145 prostate

Row | SMILES | TGI (M14 melanoma) [µM] | TGI (U251 CNS) [µM] | TGI (SF-295 CNS) [µM] | TGI (SW-620 colon) [µM] | TGI (LOX IMVI melanoma) [µM] | TGI (MOLT-4 leukemia) [µM] | TGI (HCT-15 colon) [µM] | TGI (HL-60(TB) leukemia) [µM] | GI50 (M14 melanoma) [µM] | GI50 (U251 CNS) [µM] | GI50 (SF-295 CNS) [µM] | GI50 (SW-620 colon) [µM] | GI50 (LOX IMVI melanoma) [µM] | GI50 (MOLT-4 leukemia) [µM] | GI50 (MCF7 breast) [µM] | TGI (MCF7 breast) [µM] | GI50 (HCT-15 colon) [µM] | GI50 (HL-60(TB) leukemia) [µM] | GI50 (DU-145 prostate) [µM] | TGI (DU-145 prostate) [µM]
1 | O=C(c1ccco1)c1ccccc1C(=O)c1ccco1 | > 100 | > 100 | > 100 | > 100 | > 100 | > 100 | > 100 | > 100 | – | – | – | – | – | – | – | – | – | – | – | –
2 | CSc1c(S(C)=O)[nH]c2cc(Br)cc(Br)c12 (configuration not stated) | 61.5 | – | 45.2 | > 100 | 31.9 | 61.5 | 70.8 | 52.3 | – | – | – | – | – | – | – | – | – | – | – | –
3 | COc1nc2c(cc1S(=O)(=O)c1ccccc1)CCc1c-2cnn1Cc1ccccc1 | > 100 | > 100 | > 100 | > 100 | > 100 | > 100 | > 100 | > 100 | > 100 | 7.58 | 9.47 | > 100 | > 100 | 5.48 | 3.48 | 38.9 | 7.99 | 2.95 | – | –
4 | COc1cc(/C=C2\CCCC3C2=Nc2ccccc2NC3c2cc(OC)c(OC)c(OC)c2)cc(OC)c1OC (configuration not stated) | 4.23 | – | > 100 | 6.77 | 5.86 | 5.4 | 4.08 | 4.97 | 1.27 | – | 3.65 | 1.6 | 1.81 | 2.31 | 2.48 | > 100 | 1.77 | 2.44 | 1.87 | 6.8
5 | COc1cc(-c2nc(-c3nnc(-c4ccc(F)c(Cl)c4)o3)c3ccccn23)cc(OC)c1OC | > 100 | 4.43 | > 100 | > 100 | > 100 | > 100 | > 100 | – | 3.27 | 1.86 | 3.09 | 3.05 | 3.83 | > 100 | – | – | 4.55 | – | – | –
6 | C=CC[N+]1(CCO)CCN=C1CCCCCCCCCCCCC (configuration not stated) | 2.99 | 2.6 | 3.3 | 2.98 | 2.68 | – | – | 3.1 | 1.64 | 1.33 | 1.81 | 1.63 | 1.38 | – | 1.5 | 2.82 | – | 1.51 | 1.6 | 2.95
7 | CN(C)CCNC(=O)c1cccc2ccc(-c3cccnc3)nc12 | 20.7 | 19.3 | 24.1 | 27.5 | 15.1 | > 100 | 17.4 | > 100 | – | – | – | – | – | – | – | – | – | – | – | –
8 | Cc1cc2c(=O)cc(-c3ccc(C(F)(F)F)cc3)oc2c(C(=O)O)c1C | > 100 | > 100 | > 100 | > 100 | > 100 | > 100 | > 100 | – | – | – | – | – | – | – | – | – | – | – | – | –
9 | CCOC(=O)/C(=C/c1ccccc1)C(=O)c1ccccc1 | 15.5 | 13.6 | 15.2 | 7.6 | 3.82 | – | 11.2 | – | 3.77 | 3.22 | 4.19 | 2.77 | 1.8 | – | 3.13 | 15.9 | 2.97 | – | 5.32 | 17.4
